Measurements as given in US11214803B2, “Modulators of YAP1 expression” (Ionis Pharmaceuticals, Inc., priority 2019, dated 2022).
Strand notation (5' to 3'): a small letter for the sugar, then the base; units joined by * are phosphorothioate-linked, units joined directly phosphodiester-linked; [ ] holds rarer units or linkages, { } end groups; capitals alone tell only the bases. k = constrained ethyl (cEt); [5mC] = 5-methylcytosine; d = 2'-deoxy (DNA)

tested on: Yap1 mRNA; assay: Antisense inhibition of human Yap1 in A-431 cells by cEt gapmers, single dose (Example 2, RTS4814); type: cell-based; details: Table 18; A-431 cells, 5,000 cells per well, free uptake, 2,000 nM modified oligonucleotide, approx. 48 hours; RTS4814; normalized to RIBOGREEN; Yap1 mRNA as percent of untreated control
In short: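 Read-out is Yap1 mRNA as percent of untreated cells, by real-time RT-PCR (probe set RTS4814) normalized to total RNA via RIBOGREEN. Cells were A-431 dosed with 2,000 nM gapmer without transfection for approximately 48 hours.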

Row | Substance | YAP1 (% UTC)
1 | 1074724 (antisense kG*kG*kG*dT*dA*dA*dA*dG*dG*dA*dA*dG*dA*kT*k[5mC]*kT) [Compound 1074724] | 22 % UTC
2 | 1074788 (kT*k[5mC]*kA*dA*d[5mC]*d[5mC]*dA*dT*dA*dA*dG*dT*dA*kG*kA*kT; antisense) [Compound 1074788] | 25 % UTC
3 | 1074820 (kA*kA*kG*dT*dG*dT*dT*dA*dA*dG*d[5mC]*dA*d[5mC]*kT*kG*kA; antisense) [Compound 1074820] | 85 % UTC
4 | 1074852 (antisense kA*kA*kT*dT*dG*dT*dT*dA*dT*dG*dA*dT*dA*kG*kG*k[5mC]) [Compound 1074852] | 4 % UTC

same assay, conditions: Table 19; A-431 cells, 5,000 cells per well, free uptake, 2,000 nM modified oligonucleotide, approx. 48 hours; RTS4814; normalized to RIBOGREEN; Yap1 mRNA as percent of untreated control

Row | Substance | YAP1 (% UTC)
5 | 1074725 (antisense kG*kT*kA*dT*dA*dA*d[5mC]*dT*dG*dG*dG*d[5mC]*dA*kA*kA*kT) [Compound 1074725] | 17 % UTC
6 | 1074757 (kA*kG*kT*dT*dA*dA*dG*d[5mC]*dA*d[5mC]*dT*dT*dT*kT*kA*k[5mC]; antisense) [Compound 1074757] | 21 % UTC
7 | 1074789 (kA*kT*k[5mC]*dA*dA*d[5mC]*d[5mC]*dA*dT*dA*dA*dG*dT*kA*kG*kA; antisense) [Compound 1074789] | 17 % UTC
8 | 1074821 (kG*kA*kA*dA*dA*dG*dT*dG*dT*dT*dA*dA*dG*k[5mC]*kA*k[5mC]; antisense) [Compound 1074821] | 18 % UTC
9 | 1074853 (antisense k[5mC]*kA*kA*dT*dT*dG*dT*dT*dA*dT*dG*dA*dT*kA*kG*kG) [Compound 1074853] | 15 % UTC

same assay, conditions: Table 20; Yap1 mRNA, percent of untreated control; 3-10-3 cEt gapmers targeting SEQ ID NO.: 1 and 2

Row | Substance | YAP1 (% UTC)
10 | 1074758 (k[5mC]*kA*kG*dT*dT*dA*dA*dG*d[5mC]*dA*d[5mC]*dT*dT*kT*kT*kA; antisense) [Compound 1074758] | 4 % UTC
11 | 1074790 (k[5mC]*kA*kT*d[5mC]*dA*dA*d[5mC]*d[5mC]*dA*dT*dA*dA*dG*kT*kA*kG; antisense) [Compound 1074790] | 28 % UTC
12 | 1074822 (kT*kA*kG*dA*dA*dA*dA*dG*dT*dG*dT*dT*dA*kA*kG*k[5mC]; antisense) [Compound 1074822] | 25 % UTC

same assay, conditions: Table 21; Yap1 mRNA, percent of untreated control; 3-10-3 cEt gapmers targeting SEQ ID NO.: 1 and 2

Row | Substance | YAP1 (% UTC)
13 | 1074759 (k[5mC]*kA*kA*d[5mC]*d[5mC]*dA*dA*dG*dA*dA*dG*d[5mC]*dA*kG*kT*kT; antisense) [Compound 1074759] | 43 % UTC
14 | 1074791 (k[5mC]*kT*k[5mC]*d[5mC]*dA*dT*d[5mC]*dA*dA*d[5mC]*d[5mC]*dA*dT*kA*kA*kG; antisense) [Compound 1074791] | 20 % UTC
15 | 1074823 (kG*kA*kG*d[5mC]*dA*d[5mC]*dT*d[5mC]*dA*dT*dT*dT*d[5mC]*kT*k[5mC]*kA; antisense) [Compound 1074823] | 77 % UTC

same assay, conditions: Table 22; Yap1 mRNA as percent of untreated control; 3-10-3 cEt gapmers; single dose

Row | Substance | YAP1 (% UTC)
16 | 1074760 (kA*k[5mC]*kA*dA*d[5mC]*d[5mC]*dA*dA*dG*dA*dA*dG*d[5mC]*kA*kG*kT; antisense) [Compound 1074760] | 11 % UTC
17 | 1074792 (kA*kT*k[5mC]*dA*dA*dT*dG*dT*dG*d[5mC]*dT*d[5mC]*d[5mC]*kA*kT*k[5mC]; antisense) [Compound 1074792] | 4 % UTC
18 | 1074824 (k[5mC]*k[5mC]*kT*dG*dA*dG*d[5mC]*dA*d[5mC]*dT*d[5mC]*dA*dT*kT*kT*k[5mC]; antisense) [Compound 1074824] | 53 % UTC

same assay, conditions: Table 23; Yap1 mRNA as percent of untreated control; 3-10-3 cEt gapmers; single dose

Row | Substance | YAP1 (% UTC)
19 | 1074729 (antisense kA*k[5mC]*kA*d[5mC]*dT*dG*dA*dG*dG*dT*dA*dT*dA*kA*k[5mC]*kT) [Compound 1074729] | 9 % UTC
20 | 1074761 (kT*kA*k[5mC]*d[5mC]*d[5mC]*dA*dA*dT*dA*d[5mC]*dA*dA*d[5mC]*k[5mC]*kA*kA; antisense) [Compound 1074761] | 15 % UTC
21 | 1074793 (kA*kA*kT*d[5mC]*dA*dA*dT*dG*dT*dG*d[5mC]*dT*d[5mC]*k[5mC]*kA*kT; antisense) [Compound 1074793] | 9 % UTC
22 | 1074825 (kA*k[5mC]*k[5mC]*dT*dG*dA*dG*d[5mC]*dA*d[5mC]*dT*d[5mC]*dA*kT*kT*kT; antisense) [Compound 1074825] | 36 % UTC

same assay, conditions: Table 24; Yap1 mRNA as percent of untreated control; 3-10-3 cEt gapmers targeting SEQ ID NO.: 1, and 2

Row | Substance | YAP1 (% UTC)
23 | 1074730 (antisense kT*kA*kT*d[5mC]*dA*d[5mC]*dA*dG*dT*dA*d[5mC]*dT*dG*k[5mC]*kT*kA) [Compound 1074730] | 46 % UTC
24 | 1074762 (kG*k[5mC]*kT*dA*d[5mC]*d[5mC]*d[5mC]*dA*dA*dT*dA*d[5mC]*dA*kA*k[5mC]*k[5mC]; antisense) [Compound 1074762] | 6 % UTC
25 | 1074794 (k[5mC]*kA*kA*dA*dT*d[5mC]*dA*dA*dT*dG*dT*dG*d[5mC]*kT*k[5mC]*k[5mC]; antisense) [Compound 1074794] | 5 % UTC
26 | 1074826 (kA*kA*kA*dT*d[5mC]*d[5mC]*dA*d[5mC]*d[5mC]*dT*dG*dA*dG*k[5mC]*kA*k[5mC]; antisense) [Compound 1074826] | 51 % UTC

same assay, conditions: Table 25; Yap1 mRNA as percent of untreated control; 3-10-3 cEt gapmers targeting SEQ ID NO.: 1, and 2

Row | Substance | YAP1 (% UTC)
27 | 1074731 (antisense k[5mC]*kA*kG*dG*dT*dA*dT*d[5mC]*dA*d[5mC]*dA*dG*dT*kA*k[5mC]*kT) [Compound 1074731] | 19 % UTC
28 | 1074763 (kT*kG*k[5mC]*dT*dA*d[5mC]*d[5mC]*d[5mC]*dA*dA*dT*dA*d[5mC]*kA*kA*k[5mC]; antisense) [Compound 1074763] | 25 % UTC
29 | 1074795 (k[5mC]*k[5mC]*kA*dA*dA*dT*d[5mC]*dA*dA*dT*dG*dT*dG*k[5mC]*kT*k[5mC]; antisense) [Compound 1074795] | 4 % UTC
30 | 1074827 (kT*kA*kA*dA*dA*dT*d[5mC]*d[5mC]*dA*d[5mC]*d[5mC]*dT*dG*kA*kG*k[5mC]; antisense) [Compound 1074827] | 39 % UTC

same assay, conditions: Table 32; Yap1 mRNA, percent of untreated control; 3-10-3 cEt gapmers targeting SEQ ID NO.: 1, and 2

Row | Substance | YAP1 (% UTC)
31 | 1074706 (antisense kT*kT*kA*dA*dT*dG*dG*d[5mC]*dA*dG*d[5mC]*dA*d[5mC]*kG*kG*kT) [compound 1074706] | 48 % UTC
32 | 1074738 (k[5mC]*kT*kT*d[5mC]*dA*dG*dG*dT*d[5mC]*dA*dG*dT*dA*k[5mC]*kA*kG; antisense) [compound 1074738] | 12 % UTC
33 | 1074770 (kA*kT*k[5mC]*dT*dT*dA*dT*d[5mC]*d[5mC]*d[5mC]*dA*dA*dT*kG*k[5mC]*kT; antisense) [compound 1074770] | 15 % UTC
34 | 1074802 (kG*kG*k[5mC]*dA*d[5mC]*dT*dA*d[5mC]*dA*dT*dT*dT*dA*kG*kA*kA; antisense) [compound 1074802] | 37 % UTC
35 | 1074834 (kT*kT*kG*d[5mC]*dG*dA*dG*dG*dA*dT*dA*dA*dA*kA*kT*k[5mC]; antisense) [compound 1074834] | 14 % UTC

same assay, conditions: Table 33; Yap1 mRNA, percent of untreated control; 3-10-3 cEt gapmers targeting SEQ ID NO.: 1, and 2

Row | Substance | YAP1 (% UTC)
36 | 1074707 (antisense kT*kT*kT*dA*dA*dT*dG*dG*d[5mC]*dA*dG*d[5mC]*dA*k[5mC]*kG*kG) [compound 1074707] | 36 % UTC
37 | 1074739 (kG*kA*k[5mC]*dT*d[5mC]*dT*dT*dA*dG*dG*dT*d[5mC]*dT*k[5mC]*k[5mC]*kT; antisense) [compound 1074739] | 24 % UTC
38 | 1074771 (kA*kA*kT*d[5mC]*dT*dT*dA*dT*d[5mC]*d[5mC]*d[5mC]*dA*dA*kT*kG*k[5mC]; antisense) [compound 1074771] | 18 % UTC
39 | 1074803 (kA*kG*kG*d[5mC]*dA*d[5mC]*dT*dA*d[5mC]*dA*dT*dT*dT*kA*kG*kA; antisense) [compound 1074803] | 32 % UTC
40 | 1074835 (k[5mC]*kT*kT*dG*d[5mC]*dG*dA*dG*dG*dA*dT*dA*dA*kA*kA*kT; antisense) [compound 1074835] | 30 % UTC

same assay, conditions: Yap1 mRNA as percent of untreated control; A-431 cells; 3-10-3 cEt gapmers targeting SEQ ID NO.: 1, and 2; Table 30

Row | Substance | YAP1 (% UTC)
41 | 1074768 (k[5mC]*kT*kT*dA*dT*d[5mC]*d[5mC]*d[5mC]*dA*dA*dT*dG*d[5mC]*kT*kA*k[5mC]; antisense) [compound 1074768] | 11 % UTC
42 | 1074832 (kG*k[5mC]*kG*dA*dG*dG*dA*dT*dA*dA*dA*dA*dT*k[5mC]*k[5mC]*kA; antisense) [compound 1074832] | 17 % UTC

same assay, conditions: Yap1 mRNA as percent of untreated control; A-431 cells; 3-10-3 cEt gapmers targeting SEQ ID NO.: 1, and 2; Table 31

Row | Substance | YAP1 (% UTC)
43 | 1074769 (kT*k[5mC]*kT*dT*dA*dT*d[5mC]*d[5mC]*d[5mC]*dA*dA*dT*dG*k[5mC]*kT*kA; antisense) [compound 1074769] | 12 % UTC
44 | 1074833 (kT*kG*k[5mC]*dG*dA*dG*dG*dA*dT*dA*dA*dA*dA*kT*k[5mC]*k[5mC]; antisense) [compound 1074833] | 17 % UTC
